Measurements as given in ChEMBL document CHEMBL1201862, “PubChem BioAssay data set” (2004).
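Test compounds were applied to cells in 96-well plates for 48 hours at 5 doses. GI50 = concentration required for 50% inhibition of growth.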 The source made the active and inactive calls. Rule as the data show it: active = GI50 up to about 1.1 µM and inactive = higher.

How the values were obtained:
Assay in all cases: NCI anticancer screen, dose series, 48 h
786-0 = tested on: 786-0
A498 = tested on: A498
A549 = tested on: A549
ACHN = tested on: ACHN
CAKI-1 = tested on: CAKI-1
CCRF-CEM = tested on: CCRF-CEM
COLO 205 = tested on: COLO 205
DLD-1 = tested on: DLD-1
DMS-114 = tested on: DMS-114
DMS-273 = tested on: DMS-273
EKVX = tested on: EKVX
HCC 2998 = tested on: HCC 2998
HCT-116 = tested on: HCT-116
HCT-15 = tested on: HCT-15
HL-60 = tested on: HL-60
HOP-18 = tested on: HOP-18
HOP-62 = tested on: HOP-62
HOP-92 = tested on: HOP-92
HT-29 = tested on: HT-29
IGROV-1 = tested on: IGROV-1
K562 = tested on: K562
KM-20L2 = tested on: KM-20L2
KM12 = tested on: KM12
LOX IMVI = tested on: LOX IMVI
LXFL 529 = tested on: LXFL 529
M14 = tested on: M14
M19-MEL = tested on: M19-MEL
MOLT-4 = tested on: MOLT-4
Malme-3M = tested on: Malme-3M
NCI-H226 = tested on: NCI-H226
NCI-H23 = tested on: NCI-H23
NCI-H460 = tested on: NCI-H460
NCI-H522 = tested on: NCI-H522
OVCAR-3 = tested on: OVCAR-3
OVCAR-4 = tested on: OVCAR-4
OVCAR-5 = tested on: OVCAR-5
OVCAR-8 = tested on: OVCAR-8
RPMI-8226 = tested on: RPMI-8226
RXF 393 = tested on: RXF 393
RXF 631 = tested on: RXF 631
SF-268 = tested on: SF-268
SF-295 = tested on: SF-295
SF-539 = tested on: SF-539
SK-MEL-2 = tested on: SK-MEL-2
SK-MEL-5 = tested on: SK-MEL-5
SK-OV-3 = tested on: SK-OV-3
SN12C = tested on: SN12C
SNB-19 = tested on: SNB-19
SNB-75 = tested on: SNB-75
SNB-78 = tested on: SNB-78
SR = tested on: SR
SW-620 = tested on: SW-620
TK-10 = tested on: TK-10
U-251 = tested on: U-251
UACC-257 = tested on: UACC-257
UACC-62 = tested on: UACC-62
UO-31 = tested on: UO-31
XF498 = tested on: XF498
BT-549 = tested on: BT-549
DU-145 = tested on: DU-145
Hs-578T = tested on: Hs-578T
MCF7 = tested on: MCF7
MDA-MB-231 = tested on: MDA-MB-231
MDA-MB-435 = tested on: MDA-MB-435
MDA-N = tested on: MDA-N
NCI/ADR-RES = tested on: NCI/ADR-RES
PC-3 = tested on: PC-3
SK-MEL-28 = tested on: SK-MEL-28
T47D = tested on: T47D

With `Fc1cccc(Cl)c1C1SCc2nc3ccccc3n21` (stereo unspecified) the GI50 (786-0) was 45.7 µM (inactive), the GI50 (A498) was 83.2 µM (inactive) and the GI50 (A549) was 37.2 µM (inactive). For the same compound, the GI50 (ACHN) was 39.2 µM (inactive), the GI50 (CAKI-1) was 27.1 µM (inactive) and the GI50 (CCRF-CEM) was 25.3 µM (inactive). The GI50 (COLO 205) was 22.8 µM (inactive), the GI50 (DLD-1) was 28.8 µM (inactive) and the GI50 (DMS-114) was 20.7 µM (inactive). The GI50 (DMS-273) was 22.6 µM (inactive), the GI50 (EKVX) was 26.4 µM (inactive) and the GI50 (HCC 2998) was 31.7 µM (inactive). For the same compound, the GI50 (HCT-116) was 22.4 µM (inactive), the GI50 (HCT-15) was 31.3 µM and the GI50 (HL-60) was 11 µM (inactive). For the same compound, the GI50 (HOP-18) was 29.7 µM (inactive), the GI50 (HOP-62) was 33.2 µM (inactive) and the GI50 (HOP-92) was 6.62 µM (inactive). For the same compound, the GI50 (HT-29) was 25.5 µM (inactive), the GI50 (IGROV-1) was 29.1 µM (inactive) and the GI50 (K562) was 25.8 µM (inactive). For the same compound, the GI50 (KM-20L2) was 17.2 µM (inactive), the GI50 (KM12) was 24.8 µM (inactive) and the GI50 (LOX IMVI) was 17.3 µM (inactive). The GI50 (LXFL 529) was 35.9 µM (inactive), the GI50 (M14) was 34 µM (inactive) and the GI50 (M19-MEL) was 26.1 µM (inactive). The GI50 (MOLT-4) was 18.8 µM (inactive), the GI50 (Malme-3M) was 14.8 µM (inactive) and the GI50 (NCI-H226) was 36.6 µM (inactive). The GI50 (NCI-H23) was 24.3 µM (inactive), the GI50 (NCI-H460) was 33 µM (inactive) and the GI50 (NCI-H522) was 17.3 µM (inactive). The GI50 (OVCAR-3) was 21.9 µM (inactive), the GI50 (OVCAR-4) was 31.6 µM (inactive) and the GI50 (OVCAR-5) was 31.8 µM (inactive). For the same compound, the GI50 (OVCAR-8) was 38.1 µM (inactive), the GI50 (RPMI-8226) was 17.1 µM (inactive) and the GI50 (RXF 393) was 31.6 µM (inactive). For the same compound, the GI50 (RXF 631) was 25.3 µM (inactive), the GI50 (SF-268) was 50.5 µM (inactive) and the GI50 (SF-295) was 23.7 µM (inactive). The GI50 (SF-539) was 22.8 µM (inactive), the GI50 (SK-MEL-2) was 21.1 µM (inactive) and the GI50 (SK-MEL-5) was 15.4 µM (inactive). The GI50 (SK-OV-3) was 22.9 µM (inactive), the GI50 (SN12C) was 41.4 µM (inactive) and the GI50 (SNB-19) was 46.1 µM (inactive). For the same compound, the GI50 (SNB-75) was 38.5 µM (inactive), the GI50 (SNB-78) was 22.2 µM (inactive) and the GI50 (SR) was 17.3 µM (inactive). For the same compound, the GI50 (SW-620) was 37.2 µM (inactive), the GI50 (TK-10) was 57 µM (inactive) and the GI50 (U-251) was 27.2 µM (inactive). For the same compound, the GI50 (UACC-257) was 21.9 µM (inactive), the GI50 (UACC-62) was 15.7 µM (inactive) and the GI50 (UO-31) was 27.9 µM (inactive). For the same compound, the GI50 (XF498) was 27.7 µM (inactive).
`CCOC1c2cc(OC)c(OC)cc2-c2ccc3ccccc3c2N1C` (stereo unspecified) was tested, and the GI50 (786-0) was 16.8 µM (inactive), the GI50 (A549) was 5.62 µM (inactive) and the GI50 (ACHN) was 30.3 µM (inactive). For the same compound, the GI50 (BT-549) was 12.6 µM (inactive), the GI50 (CAKI-1) was 34.1 µM (inactive) and the GI50 (CCRF-CEM) was 18 µM (inactive). The GI50 (COLO 205) was 6.05 µM (inactive), the GI50 (DLD-1) was 25.5 µM (inactive) and the GI50 (DMS-114) was 9.35 µM (inactive). For the same compound, the GI50 (DMS-273) was 6.46 µM (inactive), the GI50 (DU-145) was 15 µM (inactive) and the GI50 (EKVX) was 6.27 µM (inactive). For the same compound, the GI50 (HCC 2998) was 14.1 µM (inactive), the GI50 (HCT-116) was 8.59 µM (inactive) and the GI50 (HCT-15) was 60.1 µM. The GI50 (HL-60) was 44.1 µM (inactive), the GI50 (HOP-18) was 42.4 µM (inactive) and the GI50 (HOP-62) was 15.7 µM (inactive). For the same compound, the GI50 (HOP-92) was 21.9 µM (inactive), the GI50 (HT-29) was 10.9 µM (inactive) and the GI50 (Hs-578T) was 6.4 µM (inactive). For the same compound, the GI50 (IGROV-1) was 19.2 µM (inactive), the GI50 (K562) was 7.16 µM (inactive) and the GI50 (KM-20L2) was 15.3 µM (inactive). For the same compound, the GI50 (KM12) was 2.66 µM (inactive), the GI50 (LOX IMVI) was 14.9 µM (inactive) and the GI50 (LXFL 529) was 5.96 µM (inactive). The GI50 (M14) was 19.3 µM (inactive), the GI50 (M19-MEL) was 11.2 µM (inactive) and the GI50 (MCF7) was 12.4 µM (inactive). The GI50 (MDA-MB-231) was 13.5 µM (inactive), the GI50 (MDA-MB-435) was 13.8 µM (inactive) and the GI50 (MDA-N) was 10.6 µM (inactive). For the same compound, the GI50 (MOLT-4) was 4.43 µM (inactive), the GI50 (Malme-3M) was 9.16 µM (inactive) and the GI50 (NCI-H226) was 19.2 µM (inactive). The GI50 (NCI-H23) was 8 µM (inactive), the GI50 (NCI-H460) was 12.2 µM (inactive) and the GI50 (NCI-H522) was 3.02 µM (inactive). The GI50 (NCI/ADR-RES) was 29.7 µM (inactive), the GI50 (OVCAR-3) was 11.5 µM (inactive) and the GI50 (OVCAR-4) was 19 µM (inactive). For the same compound, the GI50 (OVCAR-5) was 21.8 µM (inactive), the GI50 (OVCAR-8) was 12.2 µM (inactive) and the GI50 (PC-3) was 5.15 µM (inactive). For the same compound, the GI50 (RPMI-8226) was 10.7 µM (inactive), the GI50 (RXF 393) was 21.7 µM (inactive) and the GI50 (RXF 631) was 22.9 µM (inactive). For the same compound, the GI50 (SF-268) was 2.05 µM (inactive), the GI50 (SF-295) was 24.4 µM (inactive) and the GI50 (SF-539) was 18.2 µM (inactive). For the same compound, the GI50 (SK-MEL-28) was 13.4 µM (inactive), the GI50 (SK-MEL-2) was 13.9 µM (inactive) and the GI50 (SK-MEL-5) was 16.4 µM (inactive). The GI50 (SK-OV-3) was 22 µM (inactive), the GI50 (SN12C) was 7.76 µM (inactive) and the GI50 (SNB-19) was 9.86 µM (inactive). For the same compound, the GI50 (SNB-75) was 11.8 µM (inactive), the GI50 (SNB-78) was 33.6 µM (inactive) and the GI50 (SR) was 7.78 µM (inactive). The GI50 (SW-620) was 8.65 µM (inactive), the GI50 (T47D) was 4.84 µM (inactive) and the GI50 (TK-10) was 31.6 µM (inactive). The GI50 (U-251) was 6.41 µM (inactive), the GI50 (UACC-257) was 16.6 µM (inactive) and the GI50 (UACC-62) was 12.6 µM (inactive). For the same compound, the GI50 (UO-31) was 44.6 µM (inactive) and the GI50 (XF498) was 14.8 µM (inactive).
